# Test results published in patent publication US20060135435A1, “Agent that retards transformation of hormone-dependent cancer to non-hormone-dependent cancer” (priority 1998, published 2006).
compound,measurement,value
"C(=C\c1nc(COc2ccc(CCCn3cncn3)cc2)co1)/c1ccccc1 [Reference Example 3, 1-[3-[4-[2-[(E)-2-phenylethenyl]-4-oxazolylmethoxy]phenyl]propyl]-1,2,4-triazole]",melting point,108 to 109 °C
